Experimental data reported in patent US10004732B2 (Novartis AG, priority 2014, dated 2018).
Counter-ions that a name gives are not always drawn. Like-named read-outs stand apart in the source and are kept apart here.

Key:
[1] = target: T1, PI 3-kinase alpha (Homo sapiens, UniProt P42336); assay: Cellular assay H1, p-Akt (S473) in Rat-1 cells, Surefire format; format: cell-based; details: non-asterisked data: version H1 (Surefire format), Rat-1 cells; read-out: Assay H PI3Kα IC50
Target sequence in this assay (P42336 whole entry): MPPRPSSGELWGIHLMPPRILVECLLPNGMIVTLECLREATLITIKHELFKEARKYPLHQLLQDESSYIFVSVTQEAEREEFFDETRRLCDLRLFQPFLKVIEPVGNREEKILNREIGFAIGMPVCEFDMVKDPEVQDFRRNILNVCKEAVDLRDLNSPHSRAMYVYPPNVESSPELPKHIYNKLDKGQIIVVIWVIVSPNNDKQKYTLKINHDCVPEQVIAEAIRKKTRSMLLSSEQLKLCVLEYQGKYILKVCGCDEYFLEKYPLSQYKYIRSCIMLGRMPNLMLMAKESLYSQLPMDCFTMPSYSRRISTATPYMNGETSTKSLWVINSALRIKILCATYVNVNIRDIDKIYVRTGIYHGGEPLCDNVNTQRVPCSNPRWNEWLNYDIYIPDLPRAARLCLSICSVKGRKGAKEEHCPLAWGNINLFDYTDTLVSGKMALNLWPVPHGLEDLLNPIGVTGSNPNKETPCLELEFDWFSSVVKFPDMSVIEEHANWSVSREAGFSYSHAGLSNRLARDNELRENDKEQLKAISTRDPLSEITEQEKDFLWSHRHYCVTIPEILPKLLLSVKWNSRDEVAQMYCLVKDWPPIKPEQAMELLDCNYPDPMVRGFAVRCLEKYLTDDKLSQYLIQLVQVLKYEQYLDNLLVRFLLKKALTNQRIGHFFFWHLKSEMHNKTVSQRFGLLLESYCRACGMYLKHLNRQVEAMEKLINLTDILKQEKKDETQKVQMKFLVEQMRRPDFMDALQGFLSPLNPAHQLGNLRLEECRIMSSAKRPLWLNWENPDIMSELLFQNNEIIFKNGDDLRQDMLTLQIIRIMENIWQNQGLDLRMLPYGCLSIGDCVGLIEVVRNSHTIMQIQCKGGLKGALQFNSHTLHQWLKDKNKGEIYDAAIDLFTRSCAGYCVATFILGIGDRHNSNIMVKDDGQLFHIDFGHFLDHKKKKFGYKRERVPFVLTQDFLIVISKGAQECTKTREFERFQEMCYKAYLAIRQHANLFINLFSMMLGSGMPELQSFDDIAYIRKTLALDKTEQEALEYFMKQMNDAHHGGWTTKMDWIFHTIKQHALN
Target sequence in this assay (Q63787 whole entry partner): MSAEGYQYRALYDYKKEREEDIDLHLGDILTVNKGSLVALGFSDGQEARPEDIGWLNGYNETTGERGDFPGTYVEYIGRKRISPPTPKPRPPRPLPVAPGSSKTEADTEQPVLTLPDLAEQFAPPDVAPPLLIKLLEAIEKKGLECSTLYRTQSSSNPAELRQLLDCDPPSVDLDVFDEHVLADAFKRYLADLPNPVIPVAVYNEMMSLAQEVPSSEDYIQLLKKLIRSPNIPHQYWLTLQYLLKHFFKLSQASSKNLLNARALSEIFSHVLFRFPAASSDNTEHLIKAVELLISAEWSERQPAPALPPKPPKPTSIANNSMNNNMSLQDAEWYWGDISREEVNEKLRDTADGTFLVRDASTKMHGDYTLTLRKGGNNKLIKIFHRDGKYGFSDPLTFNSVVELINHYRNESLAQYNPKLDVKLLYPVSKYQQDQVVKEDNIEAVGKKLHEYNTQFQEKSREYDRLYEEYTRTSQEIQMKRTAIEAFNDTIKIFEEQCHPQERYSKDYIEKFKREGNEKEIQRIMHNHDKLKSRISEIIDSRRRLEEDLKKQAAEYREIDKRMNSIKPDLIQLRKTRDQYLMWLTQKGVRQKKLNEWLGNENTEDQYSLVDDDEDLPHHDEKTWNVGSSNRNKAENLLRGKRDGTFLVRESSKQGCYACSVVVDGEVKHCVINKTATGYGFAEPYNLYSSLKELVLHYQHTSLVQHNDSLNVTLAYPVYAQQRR

[2] = target: T2, PI 3-kinase delta (Homo sapiens, UniProt O00329); assay: TR-FRET Adapta assay, assay F
Method: TR-FRET Adapta Assay for PI 3-Kinase Gamma (E), PI 3-Kinase Delta (F)
The TR-FRET Adapta™ Universal Kinase Assay Kit was purchased from Invitrogen Corporation (Carlsbad/CA, USA) (Cat. No. PV5099).
PIK3CD substrate phosphatidylinositol (PI) was obtained from Invitrogen (vesicules consisting of 2 mM phosphatidylinositol (PI) in 50 mM HEPES pH7.5; Cat. No. PV5371). PIK3CG substrate phosphatidylinositol-4,5-bisphosphate (PIP(4,5)2 was obtained from Invitrogen (PIP2:PS large unilamellar vesicules consisting of 1 mM PIP2: 19 mM PS in 50 mM HEPES pH7.5, 3 mM MgCl2, 1 mM EGTA; Cat. No. PV5100).
Time-Resolved Fluorescence Resonance Energy Transfer (TR-FRET) is a technology based on energy transfer between two adjacent dyes, from an excited electron in one dye (the donor) to an electron of an adjacent dye (the acceptor) through resonance, then released as a photon. This energy transfer is detected by an increase in the fluorescence emission of the acceptor, and a decrease in the fluorescence emission of the donor. TR-FRET assays for protein kinases use a long-lifetime lanthanide Terbium or Europium chelates as the donor species which overcome interference from compound autofluorescence or light scatter from precipitated compounds, by introducing a delay after excitation by a flashlamp excitation source. Results are often expressed as a ratio of the intensities of the acceptor and donor fluorophores. The ratiometric nature of such a value corrects for differences in assay volumes between wells, as well as corrects for quenching effects due to colored compounds. The Adapta™ assay can be divided into two phases: a kinase reaction phase and an ADP detection phase. In the kinase reaction phase, all kinase reaction components are added to the well and the reaction is allowed to incubate for a set period of time specific for each kinase. […] In the presence of an inhibitor, the amount of ADP formed by the kinase reaction is reduced, and the resulting intact antibody-tracer interaction maintains a high TR-FRET signal.
50 nL of compound dilutions were dispensed onto white 384-well small volume polystyrene plate. Then 5 μL of either PI 3-kinase gamma or PI 3-kinase delta and lipid substrate (PI or PIP2:PS) followed by 5 μL of ATP (final assay volume 10 μL) are incubated at RT. The standard reaction buffer for the Adapta™ TR-FRET assay contained 10 mM Tris-HCl pH 7.5, 3 mM MgCl2, 50 mM NaCl, 1 mM DTT, 0.05% CHAPS 3-[(3-cholamidopropyl)dimethylammonio]-1-propanesulfonate).
Data are analyzed using Excel fit software or Graphpad Prism. IC50 values were derived by fitting a sigmoidal dose-response curve to a plot of assay readout over inhibitor concentration. All fits were performed with the program XLfit4 (ID Business Solutions, Guildford, UK). […] All fits were performed with the program XLfit4 (ID Business Solutions, Guildford, UK).

[3] = target: T3, PI 3-kinase gamma (Homo sapiens, UniProt P48736); assay: TR-FRET Adapta assay, assay E; format: biochemical; details: read-out: Assay E PI3Kγ IC50
[4] = target: T3, PI 3-kinase gamma; assay: Cellular U937 AKT assay K1 (MSD); format: cell-based; details: U937 cells, K1 format; read-out: Assay K1 PI3Kγ IC50
[5] = target: PI 4-kinase beta (Homo sapiens, UniProt Q9UBF8); assay: Kinase Glo Luminescent Kinase Assay (Kglo), assay D; format: biochemical; details: read-out: Assay D PI4Kβ IC50
Method: Kinase Glo Luminescent Kinase Assay (Kglo) for Pb 3-Kinase Alpha (A), Pb 3-Kinase Beta (B), Vps34 (C), Pb 4-Kinase Beta (D)
The Kinase Glo Luminescent Kinase Assay (Promega, Madison/Wis., USA) is a homogeneous HTS method of measuring kinase activity by quantifying the amount of ATP remaining in solution following a kinase reaction.
L-α-phosphatidylinositol (PI), provided as 10 mg/ml solution in methanol, was transferred into a glass tube and dried under a nitrogen beam. It was then resuspended in 3% OctylGlucoside (1-0-n-octyl-beta-D-glucopyranoside) by vortexing and stored at 4° C. 5 μL of a mix of PI/OctylGlucoside with the PI 3-kinase alpha and PI 3-kinase beta subtypes, or Vps34 or PI 4-kinase beta were added. Kinase reactions were started by the addition of 5 μl of an ATP-mix containing in a final volume 10 μL 10 mM TRIS-HCl pH 7.5, 3 mM MgCl2, 50 mM NaCl, 0.05% CHAPS, 1 mM DTT and 1 μM ATP at room temperature.
All fits were performed with the program XLfit4 (ID Business Solutions, Guildford, UK).

[6] = tested on: IL-8-induced neutrophil shape change in human whole blood; assay: Whole blood neutrophil shape change assay (L); format: cell-based; details: IL-8, human whole blood, read-out: Assay L WBSC IC50
[7] = target: mTOR (Homo sapiens, UniProt P42345); assay: Lanthascreen kinase binding assay, assay G; details: read-out: Assay G mTOR IC50
Method: Lanthascreen™ Kinase Binding Assay for mTOR (G)
Binding of an inhibitor to the kinase competes for binding with the tracer, resulting in a loss of FRET.
50 nL of compound dilutions were dispensed onto white 384-well small volume polystyrene plate.

[8] = target: Vps34 (Homo sapiens, UniProt Q8NEB9); assay: Kinase Glo Luminescent Kinase Assay (Kglo), assay C; format: biochemical; details: read-out: Assay C VPS34 IC50
[9] = target: T4, PI 3-kinase beta (Homo sapiens, UniProt P42338); assay: Cellular assay I1, p-Akt (S473) in Rat-1 cells, Surefire format; format: cell-based; details: non-asterisked data: version I1 (Surefire format), Rat-1 cells; read-out: Assay I PI3Kβ IC50
[10] = target: T1, PI 3-kinase alpha; assay: Kinase Glo Luminescent Kinase Assay (Kglo), assay A; format: biochemical; details: read-out: Assay A PI3Kα IC50
Target sequence in this assay (P42336 whole entry): as the sequence (P42336 whole entry) above

[11] = target: T4, PI 3-kinase beta; assay: Kinase Glo Luminescent Kinase Assay (Kglo), assay B; format: biochemical; details: read-out: Assay B PI3Kβ IC50
[12] = target: T2, PI 3-kinase delta; assay: Cellular assay J1, p-Akt (S473) in Rat-1 cells, Surefire format; format: cell-based; details: non-asterisked data: version J1 (Surefire format), Rat-1 cells; read-out: Assay J PI3Kδ IC50
[13] = Microsomal clearance assay (M); details: intrinsic clearance in rat liver microsomes
Method: The experiments were performed in 96-well glass plates at 37° C. on an automated Tecan EVO platform. Test compounds at a concentration of 10 mM in pure DMSO were diluted 1:1000 in water to 10 μM. […] Reactions were initiated by the addition of 150 μL of a cofactor solution containing 2 mM NADPH.

Vps34, sequence (Q8NEB9 whole entry, species assumed): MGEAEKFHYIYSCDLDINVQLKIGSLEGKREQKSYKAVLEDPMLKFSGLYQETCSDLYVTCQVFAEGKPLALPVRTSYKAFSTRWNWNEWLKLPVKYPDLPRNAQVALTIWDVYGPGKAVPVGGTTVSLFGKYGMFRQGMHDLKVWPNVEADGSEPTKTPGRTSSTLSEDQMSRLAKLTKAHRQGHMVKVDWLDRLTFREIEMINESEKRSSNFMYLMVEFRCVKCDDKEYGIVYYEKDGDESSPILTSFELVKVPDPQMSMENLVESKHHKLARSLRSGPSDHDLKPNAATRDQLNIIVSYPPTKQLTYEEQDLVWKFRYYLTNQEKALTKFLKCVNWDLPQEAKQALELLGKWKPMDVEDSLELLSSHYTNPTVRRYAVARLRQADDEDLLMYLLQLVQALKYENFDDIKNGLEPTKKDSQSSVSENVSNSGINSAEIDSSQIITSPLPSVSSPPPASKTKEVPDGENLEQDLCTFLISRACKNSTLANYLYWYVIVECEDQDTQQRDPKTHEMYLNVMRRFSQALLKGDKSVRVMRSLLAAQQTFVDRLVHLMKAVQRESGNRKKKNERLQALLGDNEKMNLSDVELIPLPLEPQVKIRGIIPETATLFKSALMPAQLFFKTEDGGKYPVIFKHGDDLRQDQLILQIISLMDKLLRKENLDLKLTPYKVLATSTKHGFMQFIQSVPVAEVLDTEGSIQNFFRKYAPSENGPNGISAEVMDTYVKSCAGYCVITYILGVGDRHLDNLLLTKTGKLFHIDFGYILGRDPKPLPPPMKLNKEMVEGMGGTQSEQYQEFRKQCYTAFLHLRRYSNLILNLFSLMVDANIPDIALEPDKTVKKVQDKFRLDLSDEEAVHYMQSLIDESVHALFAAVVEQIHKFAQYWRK
T3 sequence (P48736 whole entry): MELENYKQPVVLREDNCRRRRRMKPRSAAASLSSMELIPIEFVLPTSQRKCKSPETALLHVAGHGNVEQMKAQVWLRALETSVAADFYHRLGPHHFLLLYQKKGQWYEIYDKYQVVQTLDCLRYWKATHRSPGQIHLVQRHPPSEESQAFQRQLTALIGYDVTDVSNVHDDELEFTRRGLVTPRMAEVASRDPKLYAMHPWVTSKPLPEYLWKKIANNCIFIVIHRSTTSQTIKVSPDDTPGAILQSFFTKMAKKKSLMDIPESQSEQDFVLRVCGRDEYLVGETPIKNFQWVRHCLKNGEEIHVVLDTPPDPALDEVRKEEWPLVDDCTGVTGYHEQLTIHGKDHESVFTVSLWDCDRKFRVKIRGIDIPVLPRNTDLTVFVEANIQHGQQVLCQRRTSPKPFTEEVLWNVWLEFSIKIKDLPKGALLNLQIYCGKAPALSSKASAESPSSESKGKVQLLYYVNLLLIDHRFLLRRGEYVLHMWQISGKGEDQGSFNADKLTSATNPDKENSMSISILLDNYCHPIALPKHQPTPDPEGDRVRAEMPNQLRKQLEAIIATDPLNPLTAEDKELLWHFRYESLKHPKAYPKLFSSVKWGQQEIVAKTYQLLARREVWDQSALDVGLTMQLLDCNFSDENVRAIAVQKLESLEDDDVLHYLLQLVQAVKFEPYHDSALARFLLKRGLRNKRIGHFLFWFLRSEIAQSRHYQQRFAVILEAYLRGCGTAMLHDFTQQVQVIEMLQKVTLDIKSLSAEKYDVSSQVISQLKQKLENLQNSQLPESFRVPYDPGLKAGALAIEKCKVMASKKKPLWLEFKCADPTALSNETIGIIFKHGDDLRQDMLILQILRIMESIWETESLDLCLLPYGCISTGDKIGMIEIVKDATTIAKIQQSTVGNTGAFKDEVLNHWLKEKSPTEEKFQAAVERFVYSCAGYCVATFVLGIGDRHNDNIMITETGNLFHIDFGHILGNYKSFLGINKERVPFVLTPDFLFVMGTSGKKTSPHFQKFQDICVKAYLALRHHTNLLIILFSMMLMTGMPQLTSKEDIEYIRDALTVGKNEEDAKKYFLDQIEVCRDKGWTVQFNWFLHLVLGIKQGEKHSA
PI 4-kinase beta, sequence (Q9UBF8 whole entry): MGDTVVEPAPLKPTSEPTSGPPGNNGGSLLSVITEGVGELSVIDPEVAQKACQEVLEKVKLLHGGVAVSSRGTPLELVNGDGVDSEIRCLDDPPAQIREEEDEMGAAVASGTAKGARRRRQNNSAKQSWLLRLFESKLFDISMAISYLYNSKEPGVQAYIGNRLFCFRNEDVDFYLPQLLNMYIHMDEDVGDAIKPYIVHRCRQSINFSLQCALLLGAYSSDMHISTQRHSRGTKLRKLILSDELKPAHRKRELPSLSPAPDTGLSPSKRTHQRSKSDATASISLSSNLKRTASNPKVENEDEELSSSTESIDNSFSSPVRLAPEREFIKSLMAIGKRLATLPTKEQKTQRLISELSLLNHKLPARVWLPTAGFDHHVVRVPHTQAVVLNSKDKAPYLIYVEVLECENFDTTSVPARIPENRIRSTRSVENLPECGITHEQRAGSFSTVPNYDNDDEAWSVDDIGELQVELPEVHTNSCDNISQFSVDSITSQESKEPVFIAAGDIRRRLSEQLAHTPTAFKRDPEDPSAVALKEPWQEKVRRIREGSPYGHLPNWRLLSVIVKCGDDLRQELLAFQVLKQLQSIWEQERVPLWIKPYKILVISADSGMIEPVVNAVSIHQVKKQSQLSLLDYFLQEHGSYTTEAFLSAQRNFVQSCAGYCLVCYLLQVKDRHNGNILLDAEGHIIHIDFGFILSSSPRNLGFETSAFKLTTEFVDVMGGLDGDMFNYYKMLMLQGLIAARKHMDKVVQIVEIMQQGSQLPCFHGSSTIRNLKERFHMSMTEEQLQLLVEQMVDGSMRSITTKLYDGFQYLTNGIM

SMILES | IC50 [1] [µM] | IC50 ([2]; read-out: Assay F PI3Kδ IC50) [µM] | IC50 [3] [µM] | IC50 [4] [µM] | IC50 [5] [µM] | IC50 [6] [µM] | IC50 [7] [µM] | IC50 [8] [µM] | IC50 [9] [µM] | IC50 [10] [µM] | IC50 [11] [µM] | IC50 [12] [µM] | Assay M RLM CI(int) [13] [µL/min/mg] | IC50 ([6]; Homo sapiens, Neutrophil) [µM] | IC50 ([2]; Assay F PI3Kδ IC50 (μM)) [µM]
Cc1ccc(S(=O)(=O)N[C@H]2CC[C@H](O)CC2)cc1-c1cnc(N)c(-n2cncn2)n1 [Example 15, Trans-3-(5-Amino-6-(1H-1,2,4-triazol-1-yl)pyrazin-2-yl)-N-(4-hydroxycyclohexyl)-4-methylbenzenesulfonamide] | 1.93 | 0.15 | 0.018 | 0.061 | 5.68 | – | > 9.1 | > 9.1 | 2.01 | 0.16 | 1.93 | 1.45 | 24 | 0.166 | –
Cc1cnn(-c2nc(-c3cc(S(=O)(=O)N[C@H]4CC[C@H](O)CC4)ccc3C)cnc2N)c1 [Example 111, 3-(5-Amino-6-(4-methyl-1H-pyrazol-1-yl)pyrazin-2-yl)-N-((1r,4r)-4-hydroxycyclohexyl)-4-methylbenzenesulfonamide] | 1.47 | 0.06 | 0.018 | 0.02 | 1.96 | – | > 9.1 | > 9.1 | > 10 | 0.18 | 1.98 | 0.46 | 74 | 0.637 | –
Cc1ccc(S(=O)(=O)NOCC(C)(C)O)cc1-c1cnc(N)c(-n2cncn2)n1 [Example 31, 3-(5-Amino-6-[1,2,4]triazol-1-yl-pyrazin-2-yl)-N-(2-hydroxy-2-methyl-propoxy)-4-methyl-benzenesulfonamide] | 1.04 | 0.12 | 0.027 | 0.04 | 4.4 | – | 3.8 | > 9.55 | 2.51 | 0.16 | 2 | 1.03 | 37 | 0.917 | –
Cc1ncc(-c2nc(-c3cc(S(=O)(=O)NCC(C)(C)CO)ccc3C)cnc2N)s1 [Example 8, 3-[5-Amino-6-(2-methyl-thiazol-5-yl)-pyrazin-2-yl]-N-(3-hydroxy-2,2-dimethyl-propyl)-4-methyl-benzenesulfonamide] | 0.75 | 0.02 | < 0.003 | 0.021 | 1.96 | – | 0.27 | 0.41 | 6.03 | 0.04 | 1.52 | 0.37 | 50 | 0.169 | –
Cc1cc(F)c(S(=O)(=O)NCCCO)cc1-c1cnc(N)c(-c2cnn(C)c2)n1 [Example 114, 5-(5-Amino-6-(1-methyl-1H-pyrazol-4-yl)pyrazin-2-yl)-2-fluoro-N-(3-hydroxypropyl)-4-methylbenzenesulfonamide] | 5.43 | 1.19 | 0.044 | 0.177 | 5.9 | – | > 9.1 | 7.83 | > 3 | 0.29 | 3.7 | 7.99 | 17 | 0.499 | –
CCN1CCC[C@@H]1CNS(=O)(=O)c1ccc(C)c(-c2cnc(N)c(-c3cn(C)nc3C)n2)c1 [Example 27, 3-[5-Amino-6-(1,3-dimethyl-1H-pyrazol-4-yl)-pyrazin-2-yl]-N—((R)-1-ethyl-pyrrolidin-2-ylmethyl)-4-methyl-benzenesulfonamide hydrochloride] | > 10 | 0.07 | 0.047 | 0.058 | 6.65 | – | 7.4 | > 10 | > 10 | 0.21 | 0.87 | 1.02 | 60 | 0.562 | –
Cc1cn(-c2nc(-c3cc(S(=O)(=O)NCCCO)ccc3C)cnc2N)cn1 [Example 57, 3-(5-Amino-6-(4-methyl-1H-imidazol-1-yl)pyrazin-2-yl)-N-(3-hydroxypropyl)-4-methylbenzenesulfonamide] | > 10 | 0.58 | 0.057 | 0.329 | > 9.1 | – | > 9.1 | > 9.1 | > 10 | 0.32 | 6.48 | > 10 | 17 | 1.27 | –

Further lines, results first:

IC50 [1] [µM] | IC50 ([2]; read-out: Assay F PI3Kδ IC50) [µM] | IC50 [3] [µM] | IC50 [4] [µM] | IC50 [5] [µM] | IC50 [6] [µM] | IC50 [7] [µM] | IC50 [8] [µM] | IC50 [9] [µM] | IC50 [10] [µM] | IC50 [11] [µM] | IC50 [12] [µM] | Assay M RLM CI(int) [13] [µL/min/mg] | IC50 ([6]; Homo sapiens, Neutrophil) [µM] | IC50 ([2]; Assay F PI3Kδ IC50 (μM)) [µM] | SMILES
6.68 | 0.69 | 0.057 | 0.135 | > 10 | 1.95 | 9.6 | > 10 | 8.47 | 0.39 | 1.4 | 5.18 | 227 | – | – | Cc1ccc(S(=O)(=O)N[C@H]2CC[C@@](C)(O)CC2)cc1-c1cnc(N)c(-n2cncn2)n1 [Example 69b, 3-(5-amino-6-(1H-1,2,4-triazol-1-yl)pyrazin-2-yl)-N-(cis-4-hydroxy-4-methylcyclohexyl)-4-methylbenzenesulfonamide]
0.97 | 0.33 | 0.009 | 0.052 | 3.1 | – | 3.6 | > 10 | 6.28 | 0.14 | 0.34 | 1.1 | >924 | 1.77 | – | Cc1ccc(S(=O)(=O)NCC2(CO)CCCCC2)cc1-c1cnc(N)c(-n2cncn2)n1 [Example 127.52]
6.56 | 0.57 | 0.091 | 0.359 | > 10 | – | > 10 | > 10 | 1.54 | 3.5 | 1.5 | 0.8 | 233 | 1.21 | – | CCN1CCC[C@@H]1CNS(=O)(=O)c1ccc(C)c(-c2cnc(N)c(-n3cncn3)n2)c1 [Example 127.12]
> 10 | 1.8 | 0.039 | 0.8 | > 9.1 | – | > 9.1 | > 9.1 | > 10 | 2 | 7 | > 10 | 18 | 2 | – | Cc1cc(-c2nc(-c3cc(S(=O)(=O)NCC4(O)COC4)ccc3C)cnc2N)ccn1 [Example 129.32, 3-(5-amino-6-(2-methylpyridin-4-yl)pyrazin-2-yl)-N-((3-hydroxyoxetan-3-yl)methyl)-4-methylbenzenesulfonamide]
3.3 | – | 0.038 | 0.103 | > 10 | – | 9.2 | > 10 | 4.42 | 0.39 | 3.5 | 2.66 | 49 | 1.15 | 0.53 | Cc1ccc(S(=O)(=O)N[C@H]2CC[C@](C)(O)CC2)cc1-c1cnc(N)c(-n2cncn2)n1 [Example 69a, 3-(5-amino-6-(1H-1,2,4-triazol-1-yl)pyrazin-2-yl)-N-((1r,4r)-4-hydroxy-4-methylcyclohexyl)-4-methylbenzenesulfonamide]
3.02 | 0.04 | 0.024 | 0.093 | 5.3 | – | > 9.1 | > 9.1 | 2.87 | 0.18 | 3 | 1.14 | 78 | 0.581 | – | Cc1ccc(S(=O)(=O)NCCC(C)(C)O)cc1-c1cnc(N)c(-c2cnn(Cc3ccccn3)c2)n1 [Example 119.37]
2.83 | 0.11 | 0.007 | 0.046 | 3.74 | – | 2.23 | > 9.1 | 6.99 | 0.16 | 7.85 | 1.24 | 79 | 1.66 | – | Cc1ccc(S(=O)(=O)NCCC(C)(C)O)cc1-c1cnc(N)c(-c2cnn(C(C)C)c2)n1 [Example 119.31]
